Article PMC5665533, “Generation of G protein-coupled receptor antibodies differentially sensitive to conformational states” (PLoS ONE, 2017)

Target: T1, dopamine D1 receptor (D1R) (Homo sapiens, UniProt P21728)
T1 construct: gene DRD1; endogenous full-length receptor in SK-N-SH neuroblastoma cells
Assay: ELISA, agonist-induced receptor recognition by anti-D1R antibody, SK-N-SH cells
Format: cell-based
Settings: 1 μM agonist; endogenous receptor

T1 sequence (P21728 whole entry): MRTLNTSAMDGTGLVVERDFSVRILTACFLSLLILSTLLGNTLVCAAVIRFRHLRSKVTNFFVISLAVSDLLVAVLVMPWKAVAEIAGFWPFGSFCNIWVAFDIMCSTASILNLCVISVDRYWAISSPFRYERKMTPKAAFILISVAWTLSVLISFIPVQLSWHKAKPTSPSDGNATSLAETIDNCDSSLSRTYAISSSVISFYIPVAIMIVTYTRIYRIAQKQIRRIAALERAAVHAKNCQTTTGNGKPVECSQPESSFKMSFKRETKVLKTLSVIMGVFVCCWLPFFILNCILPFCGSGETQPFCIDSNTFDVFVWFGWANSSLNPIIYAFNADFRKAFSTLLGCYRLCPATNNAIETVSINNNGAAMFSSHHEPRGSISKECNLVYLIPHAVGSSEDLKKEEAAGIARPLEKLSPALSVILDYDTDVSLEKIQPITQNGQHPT

With C=CCN1CCc2c(cc(O)c(O)c2Cl)C(c2cccc(C)c2)C1 (stereo not shown) [SKF83822] the “ELISA, agonist-induced receptor recognition by anti-D1R antibody, SK-N-SH cells” value was “treatment with the dopamine D1 receptor (D1R) agonist, SKF83822”.
